Common to all, as to format: in vivo
Assay [1] has as its system tobacco Mosaic virus (TMV). The assay can be described thus: Anti-TMV activity: live protection function. As to conditions: for inhibition at 500 µg/mL: Tobacco mosaic virus, read-out: Relative inhibition rate (%) Live protection function; for TMV activity / antiTMV activity: 500µg/mL, Table 4 (all three modes); for TMV activity: compared with ribavirin; for antiTMV activity: compared with commercial Ningnanmycin. The method, then:
(§1) Determination of anti-tobacco Mosaic virus (TMV) activity by the following procedure:
(§2) The virus crude extract was centrifuged with polyethylene glycol at twice and refrigerated at 4°C for use. The absorbance of 260nm wavelength was determined by ultraviolet spectrophotometer, and the virus concentration was calculated according to the formula. Virus concentration(mg/ml) = (A260 × dilution ratio)(/E)^0.10 1cm^260nm . [formula]
(§3) After weighing, cryptolepine salt derivative, ningnanmycin and the original drug of ribavirin were dissolved in DMF to obtain 1×10^5µg/mL mother solution, and then diluted to the required concentration with 1‰ Tween 80 aqueous solution.
Select the 3-5 leaf stage of tobacco Xanthi nc with uniform growth, spray the whole plant, repeat each treatment 3 times, and set 1‰ Tween80 aqueous solution as control. 24h later, the leaf surface was coated with emery (500 mesh), the disease venom was dipped with a brush, and the whole leaf surface was gently rubbed twice along the direction of the branch pulse by using the brush, the leaf was supported by palm of hand, the virus concentration was 10µg/mL, and the leaf was washed by water after inoculation. After 3 days, the number of disease spots was recorded and the prevnetion and control effect was calculated.

Assay [2] deals with tobacco Mosaic virus (TMV). The assay can be described thus: Anti-TMV activity: live treatment effect. As to conditions: for inhibition at 500 µg/mL: Tobacco mosaic virus, 72 h, read-out: Relative inhibition rate (%) Live treatment effect. The method, then: as §1, §2, §3
Select the 3-5 leaf stage of tobacco Xanthi nc with uniform growth, use a brush to vaccinate the virus in the whole leaf, the virus concentration is 10µg/mL, and the leaf was washed with running water after inoculation. After the leaves were dried, the whole plant was sprayed with test sample, repeated 3 times every treatment, and 1‰ Tween 80 aqueous solution was set as control. After 3 days, the number of disease spots was recorded and the prevnetion and control effect was calculated.

The subject of assay [3] is tobacco Mosaic virus (TMV). The assay can be described thus: Anti-TMV activity: living passivation activity test. As to conditions: for inhibition at 500 µg/mL: Tobacco mosaic virus, read-out: Relative inhibition rate (%) Living passivation activity test. The method, then:
as §1, §2, §3
Select the 3-5 leaf stage of tobacco Xanthi nc with uniform growth, mix the test sample agent with the same volume of virus juice to passivate for 30min, friction inoculation, virus concentration 20µg/mL, the leaf was washed with running water after inoculation, repeat 3 times, set 1‰ Tween 80 aqueous solution as control. 3 days later, the number of disease spots was calculated. [formula]
Anti-tobacco Mosaic virus passivation activity test of all compounds was at a treatment dose of 500µg/mL. The positive control was the commercial anti-plant virus agent viriazole.

The subject of assay [4] is rice sheath blight strains. The assay can be described thus: Bactericidal activity test: resistance to rice sheath blight (live pot test). The conditions noted are these: for pest or weed control at 400 µg/mL: Oryza sativa, 144 h. The protocol:
Bactericidal activity test, the determination procedure is as follows: Test of resistance to rice sheath blight: Select uniformly growing rice seedlings and spray them on the leaves at the set concentration, set a water sprayring group as blank control, every treatment was repeated twice. After 24h, the rice seedlings were inoculated with rice sheath blight strains and placed at room temperature (25±4°C) for normal management after inoculation. The prevention and control effect was investigated by visual inspection 6 days after inoculation.

Where [5] appears, read: read-out: Resistance to rice sheath blight (%)/400mg/L.
The mark [6] stands for this setting: read-out: bactericidal activity against rice sheath blight.
Where [7] appears, read: 400mg/L leaf spray on rice seedlings, inoculated after 24h, visual inspection 6 days after inoculation, read-out: Resistance to rice sheath blight (%)/400mg/L.
Where [8] appears, read: Treatment dose 500 mg/L, tobacco Xanthi nc sprayed 24h before inoculation, virus 10µg/mL, disease spots counted after 3 days.
Where [9] appears, read: Treatment dose 500 mg/L, tobacco Xanthi nc inoculated (virus 10µg/mL), then sprayed, disease spots counted after 3 days.
The mark [10] stands for this setting: Treatment dose 500 mg/L, sample mixed with virus juice for 30min, then inoculated on tobacco Xanthi nc, virus 20µg/mL, 3 days.
[11] abbreviates: 400mg/L leaf spray on rice seedlings, inoculated after 24h, visual inspection 6 days after inoculation.

Here are results for 22 compounds from patent EP4578857A1, “CRYPTOLEPINE SALT DERIVATIVE, AND PREPARATION METHOD THEREFOR AND USE THEREOF” (Nankai University, priority 2023, dated 2025).

As usually defined, the inhibition is the share of the control response that was lost under treatment.

The structures appear in SMILES notation. Like-named read-outs stand apart in the source and are kept apart here.

`Cc1ccc(S(=O)(=O)n2c3ccc(C#N)cc3c3c2cc2ccccc2[n+]3C)cc1` [Example 8]: the inhibition at 500 µg/mL came out at 18.8 ± 4.2% in assay [1], 23.1 ± 0.5% in assay [2] and 18.6 ± 1.2% in assay [3]. For the same compound, in assay [4] (setting [5]), the pest or weed control at 400 µg/mL was determined as 30%.
For `Cc1ccc(S(=O)(=O)n2c3ccccc3c3c2cc2ccccc2[n+]3C)cc1` [Example 1], the inhibition at 500 µg/mL is 18.9 ± 2.6% in assay [1], 20.3 ± 1.1% in assay [2] and 18.5 ± 0.6% in assay [3]. The values for the pest or weed control at 400 µg/mL in assay [4] (setting [5]) and in assay [4] (setting [6]) were 95 ± 5% and greater than 95%, respectively.
As to `CC(C)CCNc1c2ccccc2[n+](C)c2c1[nH]c1ccccc12` [Example 26], the TMV activity entry in assay [1] was “better TMV activity than the ribavirin”. Moreover, the inhibition at 500 µg/mL in assay [1] stood at 43.1 ± 3.4%; in assay [2], 45.4 ± 1.9%; in assay [3], 37 ± 3%. Moreover, the pest or weed control at 400 µg/mL in assay [4] (setting [7]) is 35 ± 5%.
Turning to `Cc1ccc(S(=O)(=O)n2c3ccccc3c3c2cc2ccccc2[n+]3CC(C)(C)C)cc1` [Example 20], the antiTMV activity result in assay [1] was “comparable to that of commercial Ningnanmycin”. For the same compound, in assay [1], the TMV activity result is given as “better TMV activity than the ribavirin”. The inhibition at 500 µg/mL in assay [1] was found to be 51.3 ± 3.5%; in assay [2] it was 48.5 ± 3%; in assay [3], 53 ± 2.1%. Moreover, the pest or weed control at 400 µg/mL is 55 ± 5% in assay [4] (setting [5]) and greater than 50% in assay [4] (setting [6]).
`C[n+]1c2ccccc2c(NCCCCN)c2[nH]c3ccccc3c21` [Example 34]: in assay [1], the antiTMV activity result is “comparable to that of commercial Ningnanmycin”, the TMV activity entry is “better TMV activity than the ribavirin” and the inhibition at 500 µg/mL was determined as 50.3 ± 2.1%. Besides, the inhibition at 500 µg/mL in assay [2] was 43.9 ± 2%. In addition, the inhibition at 500 µg/mL in assay [3] stood at 41.2 ± 4.6%. For the same compound, the pest or weed control at 400 µg/mL in assay [4] (setting [7]) came to 20%.
Turning to `C[n+]1c2ccccc2c(NCC2CCNCC2)c2[nH]c3ccccc3c21.[I-]` [Example 42], the “Relative inhibition rate (%) Live protection function” value in assay [1] (setting [8]) amounted to 28.1±3.0%. The “Relative inhibition rate (%) Live treatment effect” value in assay [2] (setting [9]) turned out to be 30.2±2.1%. In addition, the “Relative inhibition rate (%) Living passivation activity test” value in assay [3] (setting [10]) was 25.1±0.2%. Further, the “Resistance to rice sheath blight (%)/400mg/L” value in assay [4] (setting [11]) was determined as 25±5%.
Consider `C[n+]1c2ccccc2c(NCCCC2CCCCC2)c2[nH]c3ccccc3c21` [Example 31], for which the inhibition at 500 µg/mL in assay [1] was determined as 29.5 ± 1.3%; in assay [2] it was 28.9 ± 1.1%; in assay [3], 30.5 ± 0.2%. Moreover, the pest or weed control at 400 µg/mL in assay [4] (setting [7]) is 25 ± 5%.
On to `Cc1nc(C(F)(F)F)c(C(=O)Nc2c(Br)cc(OC(F)(F)F)cc2Br)s1` [Thifluzamide, reference compound], for which the pest or weed control at 400 µg/mL in assay [4] (setting [7]) came out at 100%.
Regarding `CCNCCNc1c2ccccc2[n+](C)c2c1[nH]c1ccccc12` [Example 37], the inhibition at 500 µg/mL was determined as 31.6 ± 3.2% in assay [1], 20.7 ± 1.2% in assay [2] and 33.6 ± 0.8% in assay [3]. For the same compound, the pest or weed control at 400 µg/mL in assay [4] (setting [7]) worked out at 40%.
The like results for `CN1CCC(CNc2c3ccccc3[n+](C)c3c2[nH]c2ccccc23)CC1` [Example 45] were, in that order, 30.7 ± 2.6%, 28.1 ± 0.3%, 25.6 ± 1.1% and 30%.
As to `C[n+]1c2ccccc2cc2c1c1ccccc1n2S(=O)(=O)c1ccccc1` [Example 22], the inhibition at 500 µg/mL is 14 ± 1.1% in assay [1], 18.2 ± 1.1% in assay [2] and 15.5 ± 1.1% in assay [3]. Besides, the figures for the pest or weed control at 400 µg/mL in assay [4] (setting [5]) and in assay [4] (setting [6]) were 45 ± 5% and greater than 50%, respectively.
As for `CN(C)CC(C)(C)CNc1c2ccccc2[n+](C)c2c1[nH]c1ccccc12` [Example 39], the inhibition at 500 µg/mL in assay [1] came to 25.4 ± 3.8%; in assay [2], 30.1 ± 0.2%; in assay [3] it was 28.9 ± 2.1%. Also, the pest or weed control at 400 µg/mL in assay [4] (setting [7]) was 25 ± 5%.
On to `Cc1ccc(S(=O)(=O)n2c3ccccc3c3c2cc2cc(Br)ccc2[n+]3C)cc1` [Example 13], for which, in assay [1], the antiTMV activity result was “comparable to that of commercial Ningnanmycin”, the TMV activity result was “better TMV activity than the ribavirin” and the inhibition at 500 µg/mL came out at 50.8 ± 1%. In addition, in assay [2], the inhibition at 500 µg/mL came out at 52 ± 2.4%. In addition, the inhibition at 500 µg/mL in assay [3] is 46.1 ± 3.9%. Also, the pest or weed control at 400 µg/mL in assay [4] (setting [5]) turned out to be 35 ± 5%.
As for `Cc1ccc(S(=O)(=O)n2c3ccccc3c3c2cc2ccccc2[n+]3Cc2ccccc2)cc1` [Example 21], in assay [1], the TMV activity result is “better TMV activity than the ribavirin”. Further, the inhibition at 500 µg/mL in assay [1] amounted to 41.4 ± 3.9%; in assay [2], 32.3 ± 1.8%; in assay [3], 35.9 ± 4%. Moreover, the pest or weed control at 400 µg/mL in assay [4] (setting [5]) worked out at 40%.
Regarding `C[n+]1c2ccccc2c(NC2CCNC2)c2[nH]c3ccccc3c21` (stereo not drawn) [Example 40], the TMV activity result in assay [1] was “better TMV activity than the ribavirin”. Further, the inhibition at 500 µg/mL in assay [1] amounted to 45.8 ± 3.8%; in assay [2], 39.5 ± 3.1%; in assay [3] it was 38.6 ± 2.5%. The pest or weed control at 400 µg/mL in assay [4] (setting [7]) was 20%.
`Cc1ccc(S(=O)(=O)n2c3ccccc3c3c2cc2cc(F)ccc2[n+]3C)cc1` [Example 11]: the values for the inhibition at 500 µg/mL in assay [1], in assay [2] and in assay [3] were 27.6 ± 1.4%, 30.1 ± 1.1% and 22.3 ± 1%, respectively. In addition, in assay [4] (setting [5]), the pest or weed control at 400 µg/mL came to 40%.
For the compound `C[n+]1c2ccccc2c(NC2CCCC2)c2[nH]c3ccccc3c21` [Example 29], the inhibition at 500 µg/mL in assay [1] turned out to be 38.6 ± 4.6%; in assay [2], 36.5 ± 2.3%; in assay [3] it was 30.5 ± 0.9%. In assay [4] (setting [7]), the pest or weed control at 400 µg/mL came to 30%.
Turning to `CCCCCNc1c2ccccc2[n+](C)c2c1[nH]c1ccccc12` [Example 24], the “Relative inhibition rate (%) Live protection function” value in assay [1] (setting [8]) was determined as 36.9±3.7%. In assay [2] (setting [9]), the “Relative inhibition rate (%) Live treatment effect” value turned out to be 30.3±0.8%. The “Relative inhibition rate (%) Living passivation activity test” value in assay [3] (setting [10]) amounted to 35.2±1.0%. For the same compound, the “Resistance to rice sheath blight (%)/400mg/L” value in assay [4] (setting [11]) came out at 30±0%.
In the case of `COc1ccc2c(c1)c1c(cc3ccccc3[n+]1C)n2S(=O)(=O)c1ccc(C)cc1` [Example 3], the inhibition at 500 µg/mL in assay [1] was determined as 18.1 ± 3.1%; in assay [2] it was 19.1 ± 0.1%; in assay [3] it was 20.3 ± 0.2%. The pest or weed control at 400 µg/mL in assay [4] (setting [5]) came to 35 ± 5%.
As for `CC(N)CNc1c2ccccc2[n+](C)c2c1[nH]c1ccccc12` (stereo not drawn) [Example 35], the TMV activity entry in assay [1] is recorded as “better TMV activity than the ribavirin”. Also, the figures for the inhibition at 500 µg/mL in assay [1], in assay [2] and in assay [3] were 41 ± 2.4%, 48 ± 1.5% and 44.3 ± 2.9%, respectively. The pest or weed control at 400 µg/mL in assay [4] (setting [7]) was found to be 25 ± 5%.
Take `NC(=O)c1ncn([C@@H]2O[C@H](CO)[C@@H](O)[C@H]2O)n1` [ribavirin, reference compound]: the results for the inhibition at 500 µg/mL in assay [1] (setting [8]), in assay [2] (setting [9]) and in assay [3] (setting [10]) were 39.5 ± 2%, 36.1 ± 3.7% and 38 ± 1.3%, respectively.
`CNCC(=O)N[C@@H](CO)C(=O)N[C@H]1[C@H](O)[C@@H](O)[C@H](n2ccc(N)nc2=O)O[C@@H]1C(N)=O` [Ningnanmycin, reference compound]: the values for the inhibition at 500 µg/mL in assay [1], in assay [2] and in assay [3] were 58.3 ± 4.1%, 56.9 ± 2.8% and 59 ± 2.2%, respectively.
